Laboratory results taken from patent publication EP0364941A1, “Branched-chain alkyl esters of 2-(4-(2-piperidino ethoxy)benzoyl)benzoic acid, processes for their preparation and their use as spasmolytic agents” (HOECHST AKTIENGESELLSCHAFT, priority 1988, dated 1990).

Experiments:
small intestine [1] = test: Gastrointestinal propulsion (charcoal transport) in mice; format: in vivo
Description: Ref.: J.M.A. Zwagemakers and V. Claassen, Arzneim-Forsch/-Drug Res. 30 (II) Nr.9, p.1517 (1980).
The test compounds I and II were given orally by gavage in a range of 10 to 100 mg/kg doses 30 min before charcoal suspension (0.2 ml/animal, 10% charcoal in 5% gum acacia) in 18 hrs fasted mice (male or female, weight range 18 to 25 g). 30 min after administration of charcoal animals were killed and the extent of charcoal propulsion in the small intestine was measured. The inhibitory activity of test compound on charcoal transport was assessed as percent inhibition compared to length of intestine. For control group 10 ml/kg of saline was given.

[2] = tested on: isolated guinea pig ileum; test: Antispasmodic activity in isolated guinea pig ileum (acetylcholine-induced contraction); format: cell-based
Description: Small intestines obtained from freshly sacrificed guinea pigs (weight range, 200 - 400 g) of either sex were cleaned and stored in tyrode solution. A piece of ileum was mounted in an organ bath containing tyrode solution at 37°C and maintained at a tension of 0.5 to 1.0 g. The solution was continuously aerated with compressed air. After an initial equilibration period, a sub-maximal dose of acetylcholine required for measurable contraction was standardised. Tension changes were monitored using an isotonic strain gauge attached to the tissue and the responses were recorded on a strip chart recorder. Antispasmodic activity of test compounds at different concentrations was followed and the IC₅₀ values were calculated from dose response curves.

small intestine [3] = test: Antispasmodic activity in anaesthetized dog (carbachol or acetylcholine induced intestinal contractions); format: in vivo; details: anaesthetised dog
Description: Male mongrel dogs of weight range 10 to 15 kg were anaesthetised with pentobarbitone sodium (35 mg/ kg,i.v.). Slow i.v. infusion of pentobarbitone (5 mg/kg/hour) was given for maintenance anaesthesia. The endotracheal tube was inserted to facilitate spontaneous breathing. Both femoral artery and vein were cannulated respectively for recording blood pressure and administering drugs. After laparotomy, a small portion of small intestine distal to duodenum was isolated and saline filled balloon inserted and the opening was sutured. A fine polyethylene cannula was then inserted into the mesenteric artery which supplies to the area of intestine containing balloon for injection of carbachol or acetylcholine. A Statham pressure transducer was then attached to balloon cannula for recording both circular and longitudinal muscle contractions. All the parameters were recorded on 4 channel Nihon-Kohden recorder. The intestinal contractions were recorded after administering a standard dose of carbachol or acetylcholine (0.5 to 3 µg). Test compounds I and II were given at different doses 3,10 and 20 mg/kg intra-duodenally and spasmolytic activity was assessed at various time intervals. Anti-spasmodic activity was assessed by calculating percent reduction in agonist induced contractions and also noting onset and duration of activity. The test compounds were dissolved in distilled water (1% soln.). Table 3 Test compounds I and II were given at different doses (10, 30, 100, 300 and 1000 µg/kg) intravenously and spasmolytic activity was assessed at different time intervals. Anti-spasmodic activity was assessed by calculating percent reduction in agonist induced contractions. The ID₅₀ value was calculated from the dose response curve.

large Bowel = test: Motility of the large bowel (colonic motor complex) in conscious dogs; format: in vivo
Text: Male dogs (THG Tierhandelsgesellschaft Rodenbach, Hoe:BEAK (Beagle)) weighing 15 - 20 kg were used in all experiments.
At least 4 weeks prior the experiment the dogs had been equipped with miniaturised strain gage force transducers (T1-T2) (2x4mm), sutured onto the gut at the locations mentioned below. The cables of the transducers were embedded into a cannula which carried the plug for external electric connection. This stainless steel cannula was implanted into the abdominal wall, close below the costal arch. Each transducer was connected to a measuring bridge. The signals were on line stored using a HP 9835 A computer, allowing later analysis of the data. • T1 : Colon ascendens 10 cm aborafrom the ileoceval valve (ICV) • T2 : Colon transversum 25 cm aborad from the ICV
18 hours prior to the experiment food was withdrawn from the animals, water ad libidum. All experiments started between 08:00 and 09:00 am.
The following parameters were determined: The duration of the cycle (min) The duration of the colonic motor complex (CMC) (min) The maximal height of the concentrations (AU: arbitrary units)
Data from the two recording sites (T1-T2) were pooled. […]
For detection of significant differences (p < 0.05) the unpaired t-test was used. Only significant differences were indicated by *.

Porcine liver esterase = test: Enzymatic hydrolysis rates by porcine liver esterase; format: in vitro ADME; details: test compound 1 mM, pH 8.0, 37°C
Description: Porcine liver esterase (0.5 U = 2 µg) was preincubated in 40 mM Tris-HCl buffer, pH 8.0, at 37°C for 5 min. The reaction was initiated with the addition of the test compound (final concentration, 1 mM) in the final volume of 250 µl. Enzyme reaction was terminated at different time intervals by the addition of 60 µl of 1 M acetic acid. The solution was made alkaline (pH 10.5) by adding 0.4 M NaOH and the alkaline solution was rapidly extracted (three times) with 2.5 ml of chloroform. An aliquot of the aqueous supernatant was diluted with double distilled water and the absorbance was measured at 290 nm. Amount of test compound III (molar extinction = 14,400) formed was calculated.

CC(C)OC(=O)c1ccccc1C(=O)c1ccc(OCCN2CCCCC2)cc1.Cl [Test Compound II, Isopropyl-2-[4-(2-piperidino-ethoxy)-benzoyl]-benzoate hydrochloride]
Percent Inhibition (small intestine [1]; 10 mg/kg p.o.): 38.0 ± 4.0%
Percent Inhibition (small intestine [1]; 30 mg/kg p.o.): 41.0 ± 3.0%
Percent Inhibition (small intestine [1]; 60 mg/kg p.o.): 46.0 ± 5.0%
Guinea pig ileum Duration of action [2]: > 7.0 min
IC50 ([2]; Cavia porcellus, read-out: Guinea pig ileum IC₅₀): 0.01 µg/mL
Duration (small intestine [3]; 3 mg/kg intra-duodenal): 35 min
On-set (small intestine [3]; 3 mg/kg intra-duodenal): 7 min
Percent Inhibition (small intestine [3]; 3 mg/kg intra-duodenal): 54%
Duration (small intestine [3]; 10 mg/kg intra-duodenal): 78 min
On-set (small intestine [3]; 10 mg/kg intra-duodenal): 6.5 min
Percent Inhibition (small intestine [3]; 10 mg/kg intra-duodenal): 83%
ED50 (small intestine [3]; Canis lupus familiaris, iv, read-out: ID₅₀): 0.01 mg/kg
Duration of action (small intestine [3]; intravenous administration): > 60 min
effect on colonic motility (large Bowel; 1 mg/kg i.g.): uneffective
Duration CMC (large Bowel; 1 mg/kg intragastrically): 6 ± 2 min
Duration Cycle (large Bowel; 1 mg/kg intragastrically): 28 ± 11 min
Max.heigth of CMC (large Bowel; 1 mg/kg intragastrically): 50±25 AU
Total number of spikes (large Bowel; 1 mg/kg intragastrically): 5.6±1.7 n/CMC
Duration CMC (large Bowel; 3 mg/kg intragastrically): 11 ± 3 min
Duration Cycle (large Bowel; 3 mg/kg intragastrically): 136 ± 42 min
Max.heigth of CMC (large Bowel; 3 mg/kg intragastrically): 40±23 AU
Total number of spikes (large Bowel; 3 mg/kg intragastrically): 5.5±1.0 n/CMC
duration of complete inhibition of colonic motility (CMC) (large Bowel; 4 mg/kg i.g.): about 2 hours
µmol test compound III formed per mg protein per ml (Porcine liver esterase; Time 0.0 hours): 0.00 µmol per mg protein per ml
µmol test compound III formed per mg protein per ml (Porcine liver esterase; Time 0.5 hours): 0.05 µmol per mg protein per ml
µmol test compound III formed per mg protein per ml (Porcine liver esterase; Time 2.0 hours): 0.10 µmol per mg protein per ml
µmol test compound III formed per mg protein per ml (Porcine liver esterase; Time 3.5 hours): 0.10 µmol per mg protein per ml
